Measured values taken from publication PMC5717258, “Bioaccumulation of pharmaceuticals and personal care product chemicals in fish exposed to wastewater effluent in an urban wetland” (Scientific Reports, 2017).

Columns and labels:
[1] = parameters: method as in Moreno-González et al. 17; conditions: mean ± SD; ref Moreno-González et al. 17; cited from earlier work
[2] = human, ref Schulz et al.[56], cited from earlier work
[3] = Plasma bioaccumulation factor (BAFP), carp; assay type: in vivo, carp (Cyprinus carpio)
Protocol: Bioaccumulation factor (BAFP) was calculated as concentration in fish plasma (ng/g × 1000) divided by concentration in water (ng/L). Two widely used modeling approaches for predicting organic contaminant bioaccumulation were assessed: the BCF-BAF model for whole body BAFs[53] and the fish-plasma concentration calculation of Huggett et al.[35] modified by Berninger et al.[54]. The latter involves estimating an octanol-water partition coefficient (Kow) adjusted for fraction ionized (log D), using the pKa value to adjust log Kow[54] taking into account the pH of CPM waters. Further information on the calculation of log D, blood-water partitioning (PBW), and plasma concentrations (FPC) is given in the SI.

[4] = parameters: method as in US EPA Chemistry Dashboard; conditions: ref US EPA Chemistry Dashboard; cited from earlier work
[5] = Plasma bioaccumulation factor (BAFP), goldfish; assay type: in vivo, goldfish (Carassius auratus)
Summary of the method: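 BAFP in goldfish was calculated as plasma concentration (ng/g × 1000) divided by water concentration (ng/L).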

in vivo = conditions: goldfish (Carassius auratus), in vivo
Summary of the method: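 Pooled caged-goldfish plasma, wild-fish plasma (2.3–2.5 g) and water samples were spiked with isotope-labelled surrogates, then extracted (acetonitrile sonication for plasma; pH-adjusted water) and cleaned up by HLB SPE. PPCPs were quantified by LC/ESI-MS/MS using isotope dilution. Non-detects were set to ½ DL when the analyte was detected in ≥2 samples.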

[6] = conc in fish plasma/conc in water
[7] = range based on range of plasma concentrations

In the case of `COc1ccc(C(CN(C)C)C2(O)CCCCC2)cc1` (stereo not shown) [Venlafaxine], the “Cootes carp plasma, range of concentrations” value (Cootes Paradise Marsh, range) is reported as 0.04 to 0.27 ng/g, the “wild goldfish plasma, range of concentrations” value (Cootes Paradise Marsh, range) is reported as 0.04 to 0.17 ng/g and the “plasma concentration, CPM-C 01” value (Cootes carp 01, 2011, male, wet weight) is reported as 0.042 ng/g. For the same compound, the “plasma concentration, CPM-C 2” value (Cootes carp 2, Sep 27, 2011, male, wet weight) was 0.086 ng/g, the “plasma concentration, CPM-C 10” value (Cootes carp 10, Sep 28, 2011, female, wet weight) was 0.061 ng/g and the “plasma concentration, CPM-C 13” value (Cootes carp 13, Sep 28, 2011, female, wet weight) was 0.063 ng/g. The “plasma concentration, CPM-C 20” value (Cootes carp 20, 2011, male, wet weight) was 0.268 ng/g, the “plasma concentration, CPM-C 36” value (Cootes carp 36, Oct 3, 2011, female, wet weight) was 0.057 ng/g and the “plasma concentration, JH-C 54” value (Jordan Harbour carp 54, Nov 7, 2011, male, wet weight) was 0.042 ng/g. The “plasma concentration, JH-C 73” value (Jordan Harbour carp 73, Nov 7, 2011, female, wet weight) was 0.041 ng/g, the “plasma concentration, JH-C 74” value (Jordan Harbour carp 74, Nov 7, 2011, male, wet weight) was 0.043 ng/g and the “plasma concentration, JH-C 75” value (Jordan Harbour carp 75, Nov 7, 2011, female, wet weight) was 0.060 ng/g. For the same compound, the “plasma concentration, JH-C 82” value (Jordan Harbour carp 82, Nov 7, 2011, female, wet weight) was 0.040 ng/g, the “plasma concentration, carp, this study (mean)” value (Table S8) was 0.10 ng/g wet weight or ng/mL for plasma and the “plasma concentration, goldfish, this study (mean)” value (Table S8) was 0.11 ng/g wet weight or ng/mL for plasma. The “plasma concentration, CPM wild-01” value (wild goldfish sample 01, 2012, wet weight) was 0.039 ng/g, the “plasma concentration, CPM wild-02” value (wild goldfish sample 02, 2012, wet weight) was 0.258 ng/g and the “plasma concentration, CPM wild-03” value (wild goldfish sample 03, 2012, wet weight) was 0.042 ng/g. For the same compound, the “liver & muscle concentration, mullet” value [1] was 0.68 ± 1.3 ng/g wet weight or ng/mL for plasma, the “Therapeutic "normal" blood-plasma/serum concentration” value ([2]; converted from µg/mL) was 100 to 400 ng/mL and the “toxic dose (toxic blood-plasma/serum concentration)” value [2] was 1000 to 1500 ng/mL. For the same compound, the “BAFP at JH, carp, average” value ([3]; Jordan Harbour) was 64 L/kg, the “BAFP at CPM3, carp, average” value [3, 6] was 12 L/kg and the “BAFP at CPM3, carp, range” value [3, 7] was 5 to 32 L/kg. For the same compound, the “log Kow” value [4] was 3.28, the “BAFP, CPM1 goldfish caged” value ([5]; CPM1) was 3 L/kg and the “BAFP, CPM3 goldfish caged” value ([5]; CPM3) was 52 L/kg. The “BAFP at CPM3, wild goldfish, average” value [5, 6] was 14 L/kg, the “BAFP at CPM3, wild goldfish, range” value [5, 7] was 5 to 31 L/kg and the concentration at 21 days (in vivo; caged goldfish plasma, range of concentrations, Cootes Paradise Marsh, range) was 0.04 to 0.26 ng/g. For the same compound, the concentration at 21 days (in vivo; plasma concentration, CPM1 caged, CPM1, 07-2014, pooled plasma, wet weight) was 0.165 ng/g, the concentration at 21 days (in vivo; plasma concentration, CPM2 caged, CPM2, 07-2014, pooled plasma, wet weight) was 0.039 ng/g and the concentration at 21 days (in vivo; plasma concentration, CPM3 caged, CPM3, 07-2014, pooled plasma, wet weight) was 0.041 ng/g. The concentration at 21 days (in vivo; plasma concentration, JH caged, Jordan Harbour reference site, 07-2014, pooled plasma, wet weight) was under 0.08 ng/g.
